In ChEMBL document CHEMBL1687789, “Characteristics and dissemination of mosaic penicillin-binding protein 2-harboring multidrug-resistant Neisseria gonorrhoeae isolates with reduced cephalosporin susceptibility in northern Taiwan” (2010) one finds MIC and Activity data, which are given here for 4 compounds.

Holding throughout (type): functional
In assay [1] the test system is Neisseria gonorrhoeae. Put plainly: Antimicrobial activity against multidrug-resistant Neisseria gonorrhoeae isolates harboring mosaic penicillin-binding protein 2 penA by Etest.
Assay [2] relates to Neisseria gonorrhoeae. Briefly: Antimicrobial activity against Neisseria gonorrhoeae isolates harboring non-mosaic penicillin-binding protein 2 penA by Etest.
In assay [3] the test system is Neisseria gonorrhoeae. Briefly: Antimicrobial activity against multidrug-resistant Neisseria gonorrhoeae isolates by Etest.
The test system of assay [4] is Neisseria gonorrhoeae. Put plainly: Antimicrobial activity against multidrug-resistant Neisseria gonorrhoeae isolates assessed as resistant isolates by disk susceptibility test.
Assay [5] relates to Neisseria gonorrhoeae. Briefly: Antimicrobial activity against multidrug-resistant Neisseria gonorrhoeae isolates harboring mosaic penicillin-binding protein 2 penA assessed as resistant isolates by disk susceptibility test.
Assay [6] relates to Neisseria gonorrhoeae. Briefly: Antimicrobial activity against Neisseria gonorrhoeae isolates harboring non-mosaic penicillin-binding protein 2 penA assessed as resistant isolates by disk susceptibility test.

Molecules are shown by their SMILES. In brackets after ≈: the same amount, converted by molar mass.

Broadly, the MIC is the smallest concentration in the dilution series that meets the test's criterion for growth inhibition. For the compound `C=CC1=C(C(=O)O)N2C(=O)[C@@H](NC(=O)/C(=N\OCC(=O)O)c3csc(N)n3)[C@H]2SC1` [CEFIXIME], the MIC amounted to 0.125 mg/L (≈ 0.276 µM) in the assay on Neisseria gonorrhoeae [1], 0.016 mg/L (≈ 0.0353 µM) against Neisseria gonorrhoeae [2] and 0.016 mg/L (≈ 0.0353 µM) with Neisseria gonorrhoeae [3].
As for `CO/N=C(\C(=O)N[C@@H]1C(=O)N2C(C(=O)O)=C(CSc3nc(=O)c(O)nn3C)CS[C@H]12)c1csc(N)n1` [CEFTRIAXONE], the results for the MIC in the assay with Neisseria gonorrhoeae [1], in the assay with Neisseria gonorrhoeae [2] and with Neisseria gonorrhoeae [3] were 0.023 mg/L (≈ 0.0415 µM), 0.002 mg/L (≈ 0.00361 µM) and 0.002 mg/L (≈ 0.00361 µM), respectively.
Regarding `O=C(O)c1cn(C2CC2)c2cc(N3CCNCC3)c(F)cc2c1=O` [CIPROFLOXACIN], the Activity in the assay on Neisseria gonorrhoeae [4] came out at 88.6%; with Neisseria gonorrhoeae [5], 100%; in the assay on Neisseria gonorrhoeae [6], 84.3%.
Turning to `CC1(C)S[C@@H]2[C@H](NC(=O)Cc3ccccc3)C(=O)N2[C@H]1C(=O)O` [PENICILLIN G], the Activity is 62.2% with Neisseria gonorrhoeae [4], 71% in the assay with Neisseria gonorrhoeae [5] and 58.9% with Neisseria gonorrhoeae [6].
